Laboratory results published in publication PMC9878345 (Frontiers in Chemistry, 2023).
Several values for one entry are separate records, joined by “and”; a condition that tells them apart may be missing. Equal values may be shown once. Read-outs that look alike come from different tables or passages of the source.

Assays:
SARS-CoV-2 PLpro [1] = target: T1, SARS-CoV-2 PLpro (Severe acute respiratory syndrome coronavirus 2, UniProt P0DTD1); experiment: biochemical; assay type: biochemical; settings: for inhibitory activity towards PLpro proteolytic activity (in words): at the tested concentrations (50, 100, 200 μM); for IC50, PLpro proteolytic activity (Figure 5) / IC50 towards PLpro proteolytic activity / IC50: dose-dependent study; for IC50 towards PLpro proteolytic activity / IC50: 0–100 µM, non-linear regression; for inhibition at 200 µM / inhibition at 50 µM / inhibition at 100 µM: read-out: inhibition of PLpro proteolytic activity; for inhibition activity in SARS-CoV-2 PLpro enzymatic activity: concentration not stated
Vero-E6 cells = experiment: Cell viability assay (PrestoBlue); assay type: cell-based, African green monkey; settings: for cytotoxicity: at the tested doses and time points; for cytotoxicity (in words): 24, 48, 72 h at 50, 100, 200 µM
Description: The cytotoxic effect of selected phytochemicals were carried out with Vero-E6 cells using PrestoBlue™ Cell Viability kit as described earlier ([Lewis et al., 2022]). Briefly, Vero-E6 cells (20,000 cells) were seeded overnight in 96 well plates. Then, 100 µL of complete media (EMEM+10% FBS+1%Pen/Strep) was added to refresh the cells along with 50, 100, and 200 µM selected phytochemicals, and incubation was continued for 24, 48, and 72 hs at 37°C respectively. Cytotoxicity detection regent (PrestoBlue solution) was added and incubated for additional 1h at 37°C. The absorbance was taken at 530/25 excitation and 590/35 nm emission using Bio-Tek Synergy HT fluorescent plate reader.

SARS-CoV-2 PLpro [2] = target: T1, SARS-CoV-2 PLpro; experiment: biochemical
[3] = read-out: inhibition of PLpro DUB activity
[4] = read-out: IC50 towards PLpro proteolytic activity

## C=C(C)[C@@H]1CC[C@]2(C(=O)O)CC[C@]3(C)[C@H](CC[C@@H]4[C@@]5(C)CC[C@H](O)C(C)(C)[C@@H]5CC[C@]43C)[C@@H]12 [betulinic acid]
SARS-CoV-2 PLpro [1]
  inhibitory activity towards PLpro proteolytic activity (in words): did not show inhibitory activity

## O=c1c(-c2ccc(O)cc2)coc2cc(O)cc(O)c12 [genistein]
SARS-CoV-2 PLpro [1]
  inhibitory activity towards PLpro proteolytic activity (in words): none of the tested isoflavone compounds such as daidzein, daidzin, genistein, genistin, and isoflorentin demonstrated an inhibitory effect

## C=CCSSSCC=C [diallyl trisulfide]
SARS-CoV-2 PLpro [1]
  inhibitory activity towards PLpro proteolytic activity (in words): did not show inhibitory activity

## O[C@H]1[C@H]2c3cc4c(cc3CN3CCC(=C[C@@H]1O)[C@H]23)OCO4 [lycorine]
SARS-CoV-2 PLpro [1]
  inhibitory activity towards PLpro proteolytic activity (in words): only colchicine out of all the tested alkaloids

## O=C1C=CC[C@@H]2[C@H]3CCCN4CCC[C@@H](CN12)[C@@H]34 [sophocarpine]
SARS-CoV-2 PLpro [1]
  inhibitory activity towards PLpro proteolytic activity (in words): only colchicine out of all the tested alkaloids

## O=c1c(O)c(-c2cc(O)c(O)c(O)c2)oc2cc(O)cc(O)c12 [myricetin, 3,5,7, 3′, 4′, 5′-hexahydroxyflavone]
Vero-E6 cells
  cytotoxicity: 20-30%

## COc1ccc2cc1Oc1ccc(cc1)C[C@H]1c3cc(c(OC)cc3CCN1C)Oc1c(OC)c(OC)cc3c1[C@H](C2)N(C)CC3 [tetrandrine]
SARS-CoV-2 PLpro [1]
  inhibitory activity towards PLpro proteolytic activity (in words): only colchicine out of all the tested alkaloids

## CC(C)=CCc1c(O)cc2oc3cc(O)c(O)c(CC=C(C)C)c3c(=O)c2c1O [γ-mangostin]
SARS-CoV-2 PLpro [1]
  IC50, PLpro proteolytic activity (Figure 5): Ambiguous
  IC50 towards PLpro proteolytic activity: ambiguous

## CC1(C)OC(=O)C=C[C@]2(C)[C@H]3CC[C@@]4(C)[C@H](c5ccoc5)OC(=O)[C@H]5O[C@]54[C@]3(C)C(=O)C[C@@H]12 [obacunone]
SARS-CoV-2 PLpro [1]
  inhibitory activity towards PLpro proteolytic activity (in words): did not show inhibitory activity

## CC1(C)[C@@H](O[C@H]2O[C@H](C(=O)O)[C@@H](O)[C@H](O)[C@H]2O[C@@H]2O[C@H](C(=O)O)[C@@H](O)[C@H](O)[C@H]2O)CC[C@]2(C)[C@H]3C(=O)C=C4[C@@H]5C[C@@](C)(C(=O)O)CC[C@]5(C)CC[C@@]4(C)[C@]3(C)CC[C@@H]12 [glycyrrhizic acid]
SARS-CoV-2 PLpro [1]
  inhibitory activity towards PLpro proteolytic activity (in words): did not show inhibitory activity

## O=c1c2cc(O)c(O)cc2oc2cc(O)c([C@@H]3O[C@H](CO)[C@@H](O)[C@H](O)[C@H]3O)c(O)c12 [mangiferin, 2-β-D-glucopyranosyl-1,3,6,7-tetrahydroxy-9H-xanthan-9-one]
SARS-CoV-2 PLpro [1]; IC50 towards PLpro proteolytic activity
  IC50: 95.3 µM and 43.4 µM
SARS-CoV-2 PLpro [1]; concentration not given
  inhibition of PLpro proteolytic activity: 70%
SARS-CoV-2 PLpro [1]
  inhibition at 200 µM: > 50%
Vero-E6 cells
  cytotoxicity (in words): not c ytotoxic
SARS-CoV-2 PLpro [2]
  IC50: 104 µM
SARS-CoV-2 PLpro [2]; [3]
  inhibition at 200 µM: 10 to 30%

## O=C(O[C@@H]1Cc2c(O)cc(O)cc2O[C@@H]1c1cc(O)c(O)c(O)c1)c1cc(O)c(O)c(O)c1 [EGCG, epigallocatechin gallate]
SARS-CoV-2 PLpro [1]; 50 μM, vs DMSO control
  inhibition at 50 µM: 65%
SARS-CoV-2 PLpro [1]; 100 μM, vs DMSO control
  inhibition at 100 µM: 81%
SARS-CoV-2 PLpro [1]; 200 μM, vs DMSO control
  inhibition at 200 µM: 97%
SARS-CoV-2 PLpro [1]
  inhibition activity in SARS-CoV-2 PLpro enzymatic activity: more than 50%
Vero-E6 cells
  cytotoxicity (in words): not c ytotoxic
SARS-CoV-2 PLpro [2]; 50 μM, vs DMSO control, read-out: inhibition of PLpro DUB activity
  inhibition at 50 µM: 70%
SARS-CoV-2 PLpro [2]; 100 μM, vs DMSO control, read-out: inhibition of PLpro DUB activity
  inhibition at 100 µM: 90%
SARS-CoV-2 PLpro [2]; 200 μM, vs DMSO control, read-out: inhibition of PLpro DUB activity
  inhibition at 200 µM: 95%

## C[C@@H]1O[C@@H](OC[C@H]2O[C@@H](Oc3c(-c4ccc(O)c(O)c4)oc4cc(O)cc(O)c4c3=O)[C@H](O)[C@@H](O)[C@@H]2O)[C@H](O)[C@H](O)[C@H]1O [rutin]
SARS-CoV-2 PLpro [1]
  inhibition at 50 µM: 70%
  inhibition at 100 µM: 70%
  inhibition at 200 µM: 88%
Vero-E6 cells
  cytotoxicity (in words): not c ytotoxic

## CN1Cc2c(ccc3c2OCO3)[C@@H]2[C@H]1c1cc3c(cc1C[C@@H]2O)OCO3 [chelidonine]
SARS-CoV-2 PLpro [1]
  inhibitory activity towards PLpro proteolytic activity (in words): only colchicine out of all the tested alkaloids

## COc1cc2oc3cc(O)c(OC)c(CC=C(C)C)c3c(=O)c2c(O)c1CC=C(C)C [β-mangostin, b-Mangostin]
SARS-CoV-2 PLpro [1]
  inhibitory activity towards PLpro proteolytic activity (in words): Only γ-mangostin and mangiferin exhibited more than 50% inhibitory activity

## C[C@@H]1CC[C@H]2[C@@H](C)C(=O)O[C@@H]3O[C@@]4(C)CC[C@@H]1[C@]32OO4 [artemisinin, reference compound]
SARS-CoV-2 PLpro [1]
  inhibitory activity towards PLpro proteolytic activity (in words): did not show inhibitory activity

## COc1cc(-c2coc3cc4c(c(OC)c3c2=O)OCO4)cc(OC)c1OC [isoflorentin]
SARS-CoV-2 PLpro [1]
  inhibitory activity towards PLpro proteolytic activity (in words): none of the tested isoflavone compounds such as daidzein, daidzin, genistein, genistin, and isoflorentin demonstrated an inhibitory effect

## O=c1c(-c2ccc(O)cc2)coc2cc(O)ccc12 [daidzein]
SARS-CoV-2 PLpro [1]
  inhibitory activity towards PLpro proteolytic activity (in words): none of the tested isoflavone compounds such as daidzein, daidzin, genistein, genistin, and isoflorentin demonstrated an inhibitory effect

## O=c1c(O)cc([C@H]2Oc3cc(O)cc(O)c3C[C@H]2O)cc2c([C@H]3Oc4cc(O)cc(O)c4C[C@H]3O)cc(O)c(O)c12 [theaflavin]
SARS-CoV-2 PLpro [1]; 50 μM, vs DMSO control
  inhibition at 50 µM: 94%
SARS-CoV-2 PLpro [1]; 200 μM, vs DMSO control
  inhibition at 200 µM: 100%
SARS-CoV-2 PLpro [1]
  inhibition activity in SARS-CoV-2 PLpro enzymatic activity: more than 50%
SARS-CoV-2 PLpro [1]; [4]
  IC50: 7.3 µM
SARS-CoV-2 PLpro [2]; 50 μM, vs DMSO control
  inhibition of PLpro DUB activity: complete inhibition
SARS-CoV-2 PLpro [2]; dose-dependent study, 0–100 µM, non-linear regression, read-out: IC50 for PLpro DUB activity
  IC50: 13.2 µM
SARS-CoV-2 PLpro [2]; dose-dependent study, read-out: IC50, PLpro DUB activity (Figure 6)
  IC50: 13.2 µM

## O.Oc1cc(O)c2c(c1)O[C@H](c1ccc(O)c(O)c1)[C@@H](O)C2 [catechin]
SARS-CoV-2 PLpro [1]; 50 μM, vs DMSO control
  inhibition of PLpro proteolytic activity: 25%
SARS-CoV-2 PLpro [1]; 100 μM, vs DMSO control
  inhibition of PLpro proteolytic activity: 44%
SARS-CoV-2 PLpro [1]; 200 μM, vs DMSO control
  inhibition of PLpro proteolytic activity: 64%
SARS-CoV-2 PLpro [1]; [4]
  IC50: 14.2 µM
SARS-CoV-2 PLpro [2]; 50 μM, vs DMSO control
  inhibition of PLpro DUB activity: 30%
SARS-CoV-2 PLpro [2]; 100 μM, vs DMSO control
  inhibition of PLpro DUB activity: 40%
SARS-CoV-2 PLpro [2]; 200 μM, vs DMSO control
  inhibition of PLpro DUB activity: 50%

## O=C(/C=C/c1ccc(O)c(O)c1)O[C@H](Cc1ccc(O)c(O)c1)C(=O)O [rosmarinic acid]
SARS-CoV-2 PLpro [1]
  inhibition at 200 µM: 50%

## evodiamine
SARS-CoV-2 PLpro [1]
  inhibitory activity towards PLpro proteolytic activity (in words): only colchicine out of all the tested alkaloids

## C=CCSSCC=C [diallyl disulfide]
SARS-CoV-2 PLpro [1]
  inhibitory activity towards PLpro proteolytic activity (in words): did not show inhibitory activity

## O=c1c(-c2ccc(O)cc2)coc2cc(O[C@@H]3O[C@H](CO)[C@@H](O)[C@H](O)[C@H]3O)cc(O)c12 [genistin]
SARS-CoV-2 PLpro [1]
  inhibitory activity towards PLpro proteolytic activity (in words): none of the tested isoflavone compounds such as daidzein, daidzin, genistein, genistin, and isoflorentin demonstrated an inhibitory effect

## O=c1c(-c2ccc(O)cc2)coc2cc(O[C@@H]3O[C@H](CO)[C@@H](O)[C@H](O)[C@H]3O)ccc12 [daidzin]
SARS-CoV-2 PLpro [1]
  inhibitory activity towards PLpro proteolytic activity (in words): none of the tested isoflavone compounds such as daidzein, daidzin, genistein, genistin, and isoflorentin demonstrated an inhibitory effect

## C/C=C1/[C@H](O[C@@H]2O[C@H](CO)[C@@H](O)[C@H](O)[C@H]2O)OC=C(C(=O)OC)[C@H]1CC(=O)OCCc1ccc(O)c(O)c1 [oleuropein]
SARS-CoV-2 PLpro [1]
  IC50, PLpro proteolytic activity (Figure 5): Ambiguous
  IC50 towards PLpro proteolytic activity: ambiguous
  inhibition at 200 µM: 60%
Vero-E6 cells
  cytotoxicity: 20-30%
SARS-CoV-2 PLpro [2]
  IC50: 132 µM
SARS-CoV-2 PLpro [2]; [3]
  inhibition at 200 µM: 50%
